Laboratory results published in patent US20250115600A1, “COVALENT MODIFIERS OF AKT1 AND USES THEREOF” (Terremoto Biosciences, Inc., priority 2022, published 2025).
pIC50: −log10 of the molar value.

What was measured:
AKT1 E17K [1] = target: T1, AKT1 E17K (Homo sapiens (Human), UniProt P31749, E17K); assay: Live cell target engagement (NanoBRET) in HEK293 cells; type: cell-based
Target sequence in this assay (P31749 whole entry E17K): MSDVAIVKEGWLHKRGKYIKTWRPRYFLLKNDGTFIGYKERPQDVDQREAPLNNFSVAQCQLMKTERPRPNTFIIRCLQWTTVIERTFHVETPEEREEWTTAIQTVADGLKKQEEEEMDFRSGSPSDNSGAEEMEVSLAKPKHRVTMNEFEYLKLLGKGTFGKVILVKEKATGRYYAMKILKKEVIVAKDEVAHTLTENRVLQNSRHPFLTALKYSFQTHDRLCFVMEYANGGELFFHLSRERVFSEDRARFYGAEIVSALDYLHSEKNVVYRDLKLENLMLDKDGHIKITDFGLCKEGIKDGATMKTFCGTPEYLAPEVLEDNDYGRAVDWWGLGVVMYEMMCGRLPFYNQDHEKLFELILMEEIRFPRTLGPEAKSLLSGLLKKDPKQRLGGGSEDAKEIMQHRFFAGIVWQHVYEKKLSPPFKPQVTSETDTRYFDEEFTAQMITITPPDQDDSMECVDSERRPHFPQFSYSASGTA

AKT1 WT [2] = target: T2, AKT1 WT (Homo sapiens (Human), UniProt P31749); assay: as above; type: cell-based
Target sequence in this assay (P31749 whole entry): as the sequence (P31749 whole entry E17K) above, with K17E counted along it

AKT2 = AKT2 (Homo sapiens (Human), UniProt P31751); assay: as above; type: cell-based
AKT1 E17K [3] = target: T1, AKT1 E17K; assay: Dissociation rate of Compound A and Compound B by competition with ARQ-092, LCMS; type: binding; conditions: for AKT1 E17K t1/2: compound 5 μM, 15 minutes, then ARQ-092 50 μM, 25 mM HEPES pH 8.0, 150 mM NaCl; for Off-rate Selectivity E17K/WT: ratio of t1/2
Experimental: (§1) Determination of compound dissociation rate by intact protein mass spectrometry:Recombinant AKT1 containing appropriate mutations (1 μM) was treated with inhibitor (5 μM) at room temperature. After 15 minutes, ARQ-092 (50 μM final concentration) was added to prevent aldehyde-containing compound rebinding after initial dissociation. At various timepoints, aliquots were removed and quenched with 5 mM NaBH4 to capture the reversible imine through reductive amination, then analyzed by LCMS. Deconvoluted monoisotopic intensities of unmodified vs. compound-modified mass peaks were compared.
(§2) AKT1(E17K or WT) (1 μM) was incubated with Compound A or Compound B (5 μM) for 15 minutes in 25 mM HEPES pH 8.0, 150 mM NaCl buffer. Then ARQ-092 (50 μM) was added and aliquots quenched with 5 mM NaBH4 at a series of timepoints and the percentage labelling determined by LCMS. FIG. 32A and FIG. 32B provide competition data (dissociation rates) for Compound A and Compound B in both wild-type AKT1 and AKT1 E17K against ARQ-092. Table 8 provides half-life data based on the dissociation studies described herein.
Target sequence in this assay (P31749 2-480 E17K): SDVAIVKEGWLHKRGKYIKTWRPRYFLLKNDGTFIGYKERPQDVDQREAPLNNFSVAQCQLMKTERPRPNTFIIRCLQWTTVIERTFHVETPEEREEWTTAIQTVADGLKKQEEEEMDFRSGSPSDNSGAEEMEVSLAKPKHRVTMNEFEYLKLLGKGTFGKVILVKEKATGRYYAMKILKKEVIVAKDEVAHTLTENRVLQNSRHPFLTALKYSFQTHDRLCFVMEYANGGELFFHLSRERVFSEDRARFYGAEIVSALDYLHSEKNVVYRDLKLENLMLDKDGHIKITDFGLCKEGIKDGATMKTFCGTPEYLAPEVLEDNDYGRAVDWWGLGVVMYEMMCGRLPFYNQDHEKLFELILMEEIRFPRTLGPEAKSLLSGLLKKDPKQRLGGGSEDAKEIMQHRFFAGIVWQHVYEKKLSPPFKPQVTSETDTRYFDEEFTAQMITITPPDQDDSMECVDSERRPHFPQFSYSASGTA

AKT1 WT [4] = target: T2, AKT1 WT; assay: as above; type: binding; conditions: compound 5 μM, 15 minutes, then ARQ-092 50 μM; 25 mM HEPES pH 8.0, 150 mM NaCl
Experimental: as §1, §2
Target sequence in this assay (P31749 2-480): as the sequence (P31749 2-480 E17K) above, with K16E counted along it

AKT1 E17K mutant protein = AKT1 E17K mutant protein (Homo sapiens (Human), UniProt P31749, E17K); assay: Intact mass spectrometry, covalent complex formation and ARQ-092 competition; type: binding; conditions: for covalent complex formation with AKT1 E17K mutant protein / covalent complex formation with AKT1 E17K mutant protein in presence of competitor: protein 1 μM, compound 1.5 μM, 2 hrs at 37° C., NaBH4 reduction; for covalent complex formation with AKT1 E17K mutant protein: absence of competitor; for covalent complex formation with AKT1 E17K mutant protein in presence of competitor: with ARQ092 (50 μM)
Procedure, shortened: (§3)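 AKT1 WT or E17K (1 μM) was incubated with compound (1.5 μM) for 2 hrs at 37° C., with or without ARQ092 (50 μM) competitor as specificity control. Imines were reduced with 5 mM NaBH4 for 5 min, quenched in acetonitrile+1% TFA, and covalent adducts read by intact-mass LCMS.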

AKT1 WT [5] = target: T2, AKT1 WT; assay: as above; type: binding; conditions: protein 1 μM, compound 1.5 μM, 2 hrs at 37° C., NaBH4 reduction; for covalent complex formation with AKT1 WT protein: absence of competitor; for covalent complex formation with AKT1 WT protein in presence of competitor: with ARQ092 (50 μM)
Procedure, shortened: as §3
Target sequence in this assay (P31749 2-480): as the sequence (P31749 2-480 E17K) above, with K16E counted along it

AKT1 E17K [6] = target: T1, AKT1 E17K; assay: Dissociation rate by intact protein LCMS after ARQ092 chase; type: binding; conditions: for AKT1 E17K t1/2: compound 1.5 μM, 2 hours at 37° C., then ARQ092 50 μM; for Off-rate Selectivity E17K/WT: ratio of t1/2
Experimental: (§4) AKT1 WT or AKT1 E17K (1 μM) were treated with a compound of Table 1 (1.5 μM) for 2 hours at 37° C., then ARQ092 (50 μM final concentration) was added to prevent aldehyde-containing compound rebinding after initial dissociation. At various timepoints, aliquots were removed and quenched with 5 mM NaBH4 for 5 min to capture the reversible imine through reductive amination. Reduction reactions were quenched by diluting the sample in equal volume acetonitrile+1% TFA, then analyzed by LCMS. Deconvoluted monoisotopic intensities of unmodified vs. compound-modified mass peaks were compared.
Target sequence in this assay (P31749 2-480 E17K): as the sequence (P31749 2-480 E17K) above

AKT1 WT [7] = target: T2, AKT1 WT; assay: as above; type: binding; conditions: compound 1.5 μM, 2 hours at 37° C., then ARQ092 50 μM
Experimental: as §4
Target sequence in this assay (P31749 2-480): as the sequence (P31749 2-480 E17K) above, with K16E counted along it

BEAS2B-AKT1(E17K) = BEAS2B-AKT1(E17K) (Homo sapiens (Human), UniProt P31749, E17K); assay: Washout, target engagement durability in intact cells (in-gel fluorescence); type: cell-based
Experimental: (§5) FIG. 31 illustrates in-gel fluorescence and western blot wash out experiments of BEAS2B-AKT1(WT) and BEAS2B-AKT1(E17K) following incubation of the cells with Compound B for 0.5 hr. Wash out periods were 0 hr, 0.5 hr, 1 hr, 1.5 hr, 3 hrs, and 21 hrs.
(§6) Measurement of target engagement durability in intact cells: Beas-2b cells stably over-expressing either Flag-AKT1 WT or Flag-AKT1 E17K were treated with compound for 30 minutes at 37 C. The media was then aspirated and replaced with fresh media and the cells were incubated at 37° C. At various timepoints, cells were washed with PBS and then lysed in buffer containing 5 mM NaBH4. After 1 h, the lysate was precipitated in MeOH/CHCl3, resuspended in 1% SDS in PBS and then subjected to copper catalyzed click chemistry with TAMRA-biotin-azide. The samples were precipitated again and then resuspended in 1.5× SDS loading buffer, separated by SDS-PAGE and analyzed by in-gel fluorescence and western blot.

BEAS2B-AKT1(WT) = BEAS2B-AKT1(WT) (Homo sapiens (Human), UniProt P31749); assay: as above; type: cell-based; conditions: incubation 0.5 hr; 21 hours of dilution compared to 1 hour
Experimental: as §5, §6

Chain of AKT2 (P31751 whole entry): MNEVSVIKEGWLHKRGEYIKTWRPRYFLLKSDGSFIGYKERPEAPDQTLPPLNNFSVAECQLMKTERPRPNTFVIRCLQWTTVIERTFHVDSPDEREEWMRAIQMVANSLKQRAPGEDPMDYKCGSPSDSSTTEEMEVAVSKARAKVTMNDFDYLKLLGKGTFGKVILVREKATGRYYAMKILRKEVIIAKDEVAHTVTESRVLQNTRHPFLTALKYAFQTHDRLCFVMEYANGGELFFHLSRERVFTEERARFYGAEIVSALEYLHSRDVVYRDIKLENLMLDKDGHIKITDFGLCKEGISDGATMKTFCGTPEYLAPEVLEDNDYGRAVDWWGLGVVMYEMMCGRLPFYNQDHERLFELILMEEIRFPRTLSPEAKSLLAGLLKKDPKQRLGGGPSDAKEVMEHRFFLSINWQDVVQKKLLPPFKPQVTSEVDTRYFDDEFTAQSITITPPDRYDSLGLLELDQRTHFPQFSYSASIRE
Chain of AKT1 E17K mutant protein (P31749 2-480 E17K): as the sequence (P31749 2-480 E17K) above
Chain of BEAS2B-AKT1(E17K) (P31749 whole entry E17K): as the sequence (P31749 whole entry E17K) above
Chain of BEAS2B-AKT1(WT) (P31749 whole entry): as the sequence (P31749 whole entry E17K) above, with K17E counted along it

SMILES	covalent complex formation with AKT1 E17K mutant protein (AKT1 E17K mutant protein)	covalent complex formation with AKT1 E17K mutant protein in presence of competitor (AKT1 E17K mutant protein)	covalent complex formation with AKT1 WT protein (AKT1 WT [5])	covalent complex formation with AKT1 WT protein in presence of competitor (AKT1 WT [5])	AKT1 E17K t1/2 (AKT1 E17K [6]) [min]	Off-rate Selectivity E17K/WT (AKT1 E17K [6])	AKT1 (WT) t1/2 (AKT1 WT [7]) [min]	AKT1 E17K IC50: Selectivity vs AKT1 WT (AKT1 E17K [1])	AKT1 E17K IC50: Selectivity vs AKT2 (AKT1 E17K [1])	pIC50 (AKT1 E17K [1]; HEK293, 2 hours at 37° C.)	pIC50 (AKT1 WT [2]; HEK293, 2 hours at 37° C.)	pIC50 (AKT2; HEK293, 2 hours at 37° C.)	other results
C#Cc1cccc(-c2ccc3nc(-c4cccnc4N)n(-c4ccc(CNC(=O)c5ccc(C=O)c(O)c5)cc4)c3n2)c1 [Compound A, N-(4-(2-(2-aminopyridin-3-yl)-5-(3-ethynylphenyl)-3H-imidazo[4,5-b]pyridin-3-yl)benzyl)-4-formyl-3-hydroxybenzamide]	–	–	–	–	–	–	–	–	–	–	–	–	pIC50 (AKT1 E17K [1]; HEK293, 2 h at 37 C, Table 7): 6.30 to 7.00; pIC50 (AKT1 WT [2]; HEK293, 2 h at 37 C, Table 7): > 7.00; pIC50 (AKT2; HEK293, 2 h at 37 C, Table 7): < 6.30; AKT1 E17K t1/2 (AKT1 E17K [3]): 8.2 min; Off-rate Selectivity E17K/WT (AKT1 E17K [3]): 1.6; AKT1 (WT) t1/2 (AKT1 WT [4]): 5 min
Nc1ncccc1-c1nc2cccnc2n1-c1ccc(CNC(=O)C(F)c2ccc(C=O)c(O)c2)cc1 (centres unmarked) [Compound 74, N-({4-[2-(2-aminopyridin-3-yl)imidazo[4,5-b]pyridin-3-yl]phenyl}methyl)-2-fluoro-2-(4-formyl-3-hydroxyphenyl)acetamide]	significant presence of a covalent complex	Essentially little to no covalent complex formation	significant presence of covalent complex	Essentially no covalent complex formation	73.2	6.1	12	5.5	130	> 7.00	> 7.00	< 6.30	–
Nc1ncccc1-c1nc2ccc(-c3ccccc3)nc2n1-c1ccc(CNC(=O)Cc2ccc(C=O)c(O)c2F)cc1 [Compound 94, N-({4-[2-(2-aminopyridin-3-yl)-5-phenylimidazo[4,5-b]pyridin-3-yl]phenyl}methyl)-2-(2-fluoro-4-formyl-3-hydroxyphenyl)acetamide]	presence of a covalent complex	Essentially no covalent complex formation	presence of a covalent complex	Essentially no covalent complex formation	111	4.6	24.2	2.5	22	> 7.00	> 7.00	6.30 to 7.00	–
C#Cc1cccc(-c2ccc3nc(-c4cccnc4N)n(-c4ccc(CNCCc5ccc(C=O)c(O)c5)cc4)c3n2)c1 [Compound B, 4-(2-((4-(2-(2-aminopyridin-3-yl)-5-(3-ethynylphenyl)-3H-imidazo[4,5-b]pyridin-3-yl)benzyl)amino)ethyl)-2-hydroxybenzaldehyde]	–	–	–	–	–	–	–	–	–	–	–	–	pIC50 (AKT1 E17K [1]; HEK293, 2 h at 37 C, Table 7): > 7.00; pIC50 (AKT1 WT [2]; HEK293, 2 h at 37 C, Table 7): 6.30 to 7.00; pIC50 (AKT2; HEK293, 2 h at 37 C, Table 7): < 6.30; AKT1 E17K t1/2 (AKT1 E17K [3]): 1037 min; Off-rate Selectivity E17K/WT (AKT1 E17K [3]): 14.7; AKT1 (WT) t1/2 (AKT1 WT [4]): 72.7 min; extent of binding to E17K AKT1 after washout (BEAS2B-AKT1(E17K); incubation 0.5 hr, 21 hour of washout compared to 1 hour): roughly equivalent to binding after 1 hour of washout; selectivity of binding, E17K AKT1 versus WT-AKT1 (BEAS2B-AKT1(E17K); washout experiment): binds with substantial selectively to K17 in E17K AKT1; extent of binding to WT-AKT1 after washout (BEAS2B-AKT1(WT)): markedly diminished
Nc1ncccc1-c1nc2ccc(-c3ccccc3)nc2n1-c1ccc(CNC(=O)c2ccc(O)c(C=O)c2)cc1 [Compound 73, N-(4-(2-(2-aminopyridin-3-yl)-5-phenyl-3H-imidazo[4,5-b]pyridin-3-yl)benzyl)-3-formyl-4-hydroxybenzamide]	presence of a covalent complex	–	small level of a covalent complex	–	94.2	3.8	25	2.1	22	> 7.00	> 7.00	6.30 to 7.00	selectivity of complex formation, AKT1 E17K versus AKT1 WT (AKT1 E17K mutant protein; comparison of the spectra without competitor): selective for complex formation with AKT1 E17K
Nc1ncccc1-c1nc2cccnc2n1-c1ccc(CNC(=O)Cc2ccc(C=O)c(O)c2)cc1 [Compound 96, N-(4-(2-(2-aminopyridin-3-yl)-3H-imidazo[4,5-b]pyridin-3-yl)benzyl)-2-(4-formyl-3-hydroxyphenyl)acetamide]	significant presence of a covalent complex	Essentially little to no covalent complex formation	significant presence of covalent complex	Essentially no covalent complex formation	55.5	5.2	10.7	4.6	64	> 7.00	> 7.00	< 6.30	–
Nc1ncccc1-c1nc2ccc(-c3cccc(N4CCOCC4)c3)nc2n1-c1ccc(CNC(=O)Cc2ccc(C=O)c(O)c2F)cc1 [Example 21, N-({4-[2-(2-aminopyridin-3-yl)-5-[3-(morpholin-4-yl)phenyl]imidazo[4,5-b]pyridin-3-yl]phenyl}methyl)-2-(2-fluoro-4-formyl-3-hydroxyphenyl)acetamide]	significant presence of a covalent complex	Essentially no covalent complex formation	significant presence of a covalent complex	Essentially no covalent complex formation	68.2	1.5	45.3	1.5	4.8	> 7.00	> 7.00	> 7.00	–
Nc1ncccc1-c1nc2ccc(-c3ccccc3)nc2n1-c1ccc(CNCCc2ccc(C=O)cc2)cc1 [Compound 125, 4-(2-((4-(2-(2-aminopyridin-3-yl)-5-phenyl-3H-imidazo[4,5-b]pyridin-3-yl)benzyl)amino)ethyl)benzaldehyde]	presence of covalent complex	Essentially no covalent complex formation	only peaks corresponding to unmodified WT protein	only peaks corresponding to unmodified WT protein	176	3.9	45.3	0.28	0.39	6.30 to 7.00	6.30 to 7.00	6.30 to 7.00	–
